{"source": "paper PMC8162438", "about": "“Cancer cell-selective modulation of mitochondrial respiration and metabolism by potent organogold(III) dithiocarbamates” (Chemical Science, 2020)", "system": "MDA-MB-231", "assay": "Immunoblotting of apoptosis proteins", "format": "cell-based", "excerpt": "Apoptosis is a common cell death pathway for chemotherapeutics which can be characterized by distinct morphological features and biochemical mechanisms.[88,89] Apoptosis occurs normally in healthy cells to maintain a healthy population of cells during aging or development of tissues. Some transition metal-based drugs can trigger apoptosis due to […] of p53 dependant pathway (a tumour suppressor gene).[90,91] Populations of apoptotic cells can be determined by containing cells with Annexin V and PI.[92,93] Cells undergoing apoptosis contain ample amount of phosphatidylserine (PS) which can be bound by Annexin V. The Annexin is then labelled with FITC, a green fluorogenic dye which can be visualized by fluorescence activated cell sorting (FACS). […]\npositive control. When ready for analysis, the media were removed and the wells washed with 5 mL of PBS. […] The cells were resuspended in 2 mL of fresh media, counted, and reconstituted to a concentration of 1 x 10^5 cells/mL. […]\nCompound 2a was prepared as a stock in DMSO and added to the respective wells at the specified concentrations of 0.1, 1, and 10 µM and treated for 12 h. […] The samples were cooled and stored at −20 °C until ready for use. […] Immuno complexes were detected with the ECL detection reagent (BioRad) and analyzed using a BioRad imager with a chemiluminescence filter. […]"}
{"smiles": "C[N+](C)=C1[S][Au-2]2([S]1)[c]1ccccc1Cc1cccc[n+]12.F[P-](F)(F)(F)(F)F", "note": "(centres unmarked) [2a]", "values": [{"measurement": "Cleaved PARP expression (immunoblot)", "setting": "MDA-MB-231, 0.1, 1, 10 µM, 12 h", "result": "unaltered protein expression"}, {"measurement": "Caspase 3 and cleaved caspase 3 expression (immunoblot)", "setting": "MDA-MB-231, concentration dependent (0.1, 1, 10 µM, 12 h)", "result": "upregulated"}]}
